# Target: Tryptase beta-1 (Homo sapiens, UniProt Q15661)
# Assay: Inhibitory activity against human Tryptase beta was evaluated
# Tryptase beta-1, sequence (Q15661 whole entry): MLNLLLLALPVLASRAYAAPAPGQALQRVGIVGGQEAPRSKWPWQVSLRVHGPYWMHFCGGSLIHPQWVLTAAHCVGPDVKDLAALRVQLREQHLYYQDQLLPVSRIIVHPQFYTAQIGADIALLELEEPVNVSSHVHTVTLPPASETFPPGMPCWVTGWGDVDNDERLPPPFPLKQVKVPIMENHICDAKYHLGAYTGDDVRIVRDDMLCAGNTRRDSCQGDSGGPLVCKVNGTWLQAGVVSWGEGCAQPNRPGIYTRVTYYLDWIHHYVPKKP
row,Ki [nM],SMILES
1,10,COC(=O)C(Cc1cccc(CN)c1)NC(=O)CCNC(=O)C[C@@H]1NC(=O)[C@@H](CC(=O)NCCC(=O)NC(Cc2cccc(CN)c2)C(=O)OC)NC1=O (some centres not stated)
2,180,COC(=O)C(Cc1cccc(CN)c1)NC(=O)CC[C@@H]1NC(=O)[C@@H](CC(=O)NCC(=O)NC(Cc2cccc(CN)c2)C(=O)OC)NC1=O (some centres not stated)
3,350,COC(=O)C(Cc1cccc(CN)c1)NC(=O)CCCNC(=O)C[C@@H]1NC(=O)[C@@H](CC(=O)NCCCC(=O)NC(Cc2cccc(CN)c2)C(=O)OC)NC1=O (some centres not stated)
4,2400,COC(=O)C(Cc1cccc(CN)c1)NC(=O)CCC1NC(=O)[C@@H](CCC(=O)NC(Cc2cccc(CN)c2)C(=O)OC)NC1=O (some centres not stated)
5,213000,COC(=O)[C@@H](Cc1ccc(CN)cc1)NC(C)=O
6,18,COC(=O)C(Cc1cccc(CN)c1)NC(=O)CNC(=O)C[C@@H]1NC(=O)[C@@H](CC(=O)NCC(=O)NC(Cc2cccc(CN)c2)C(=O)OC)NC1=O (some centres not stated)
7,13700,COC(=O)[C@@H](Cc1cccc(CN)c1)NC(C)=O

# Source: ChEMBL document CHEMBL1135257, “Bivalent inhibition of beta-tryptase: distance scan of neighboring subunits by dibasic inhibitors” (Bioorg Med Chem Lett, 2002)
